Measured values published in PubChem BioAssay AID651992 (The Scripps Research Institute Molecular Screening Center, 2013).

Test system: CFBE41o- DeltaF508-CFTR YFP halide quenching kinetics
Assay: PubChem AID 651992
Settings: at 40 µM (top of the series)

Work on COc1ccc(/C=C/C=C2C(=O)NC(=O)NC2=O)cc1 yielded a YFP fluorescence ratio, lower = correction of 1.
